Reference: US20020173538A1, “Method for sensitizing cancer cells to cancer therapies with a mevalonate-reducing compound” (priority 2000, published 2002)
Read-outs that look alike come from different tables or passages of the source. Marks after values point to notes of the source that are not given here.

Experiments:
[1] = MTT cell viability assay, Hep G2 cells (serum-free DMEM); details: human, Hep G2 cells, Cell viability
Description: (§1) Human hepatoma cell lines Hep G2 and Hep 3 were chosen as the in vitro models of hepatocytes and hepatoma, respectively.

Hep G2 cells = assay: as above; details: Homo sapiens
Description: as §1

Hep 3B cells [2] = assay: MTT cell viability assay, Hep 3B cells (serum-free DMEM); details: for viability at 0.1 µM / viability at 0.5 µM / viability at 1 µM / viability at 2 µM / IC50 / viability at 5 µM / viability at 10 µM / viability at 25 µM / viability at 50 µM: Homo sapiens, Hep3B
Description: as §1

Hep 3B cells [3] = details: human, 48 h
Description: as §1

in vitro = details: human, Cell viability
Description: as §1

Hep 3B cells [4] = assay: Cell cycle determination by flow cytometry, Hep 3B; assay type: cell-based, human; details: cell line not given
[5] = HepG2, 48 h, read-out: IC50 (cell viability), 48 hr
[6] = HepG2, 72 h, read-out: IC50 (cell viability), 72 hr
[7] = 48 h, read-out: IC50 (cell viability), 48 hr
[8] = 72 h, read-out: IC50 (cell viability), 72 hr

Work on COc1cccc2c1C(=O)c1c(O)c3c(c(O)c1C2=O)C[C@@](O)(C(=O)CO)C[C@@H]3O[C@H]1C[C@H](N)[C@H](O)[C@H](C)O1 [DOX, doxorubicin] yielded a viability at 48 hr, 0.1 μM ([1]; DOX 0.1 μM, 48 hr) of 100 ± 5.3%, a viability at 72 hr, 0.1 μM ([1]; DOX 0.1 μM, 72 hr) of 99.9 ± 7.5% and a viability at 48 hr, 0.5 μM ([1]; DOX 0.5 μM, 48 hr) of 42.8 ± 3.7%. The viability at 72 hr, 0.5 μM ([1]; DOX 0.5 μM, 72 hr) was 46.7 ± 4%, the viability at 48 hr, 1 μM ([1]; DOX 1 μM, 48 hr) was 29.1 ± 1.7% and the viability at 72 hr, 1 μM ([1]; DOX 1 μM, 72 hr) was 20 ± 1.1%. The viability at 48 hr, 2 μM ([1]; DOX 2 μM, 48 hr) was 16.7 ± 2.4%, the viability at 72 hr, 2 μM ([1]; DOX 2 μM, 72 hr) was 1.9 ± 0.8% and the IC50 (Hep G2 cells; [5]) was 0.4 µM. For the same molecule, the IC50 (Hep G2 cells; [6]) was 0.5 µM, the “Ratio, inhibition (%) Hep 3B/inhibition (%) Hep G2” value (from here on “Ratio, inhibition … (%) Hep G2”) (Hep 3B cells [2]; DOX 0.5 μM, 48 hr) was 0.6*** and the “Ratio, inhibition … (%) Hep G2” value (Hep 3B cells [2]; DOX 0.5 μM, 72 hr) was 0.7*. For the same molecule, the “Ratio, inhibition … (%) Hep G2” value (Hep 3B cells [2]; DOX 1 μM, 48 hr) was 0.6***, the “Ratio, inhibition … (%) Hep G2” value (Hep 3B cells [2]; DOX 1 μM, 72 hr) was 0.6** and the “Ratio, inhibition … (%) Hep G2” value (Hep 3B cells [2]; DOX 2 μM, 48 hr) was 0.7***. The “Ratio, inhibition … (%) Hep G2” value (Hep 3B cells [2]; DOX 2 μM, 72 hr) was 0.9**, the viability at 0.1 µM (Hep 3B cells [2]; 48 h, read-out: Cell viability, DOX 0.1 μM, 48 hr) was 99.9 ± 7.8% and the viability at 0.5 µM (Hep 3B cells [2]; 48 h, read-out: Cell viability, DOX 0.5 μM, 48 hr) was 66.7 ± 1.6%. For the same molecule, the viability at 1 µM (Hep 3B cells [2]; 48 h, read-out: Cell viability, DOX 1 μM, 48 hr) was 59.3 ± 4.1%, the viability at 2 µM (Hep 3B cells [2]; 48 h, read-out: Cell viability, DOX 2 μM, 48 hr) was 40.1 ± 3% and the IC50 (Hep 3B cells [2]; [7]) was 1.5 µM. The viability at 0.1 µM (Hep 3B cells [2]; 72 h, read-out: Cell viability, DOX 0.1 μM, 72 hr) was 100 ± 5.8%, the viability at 0.5 µM (Hep 3B cells [2]; 72 h, read-out: Cell viability, DOX 0.5 μM, 72 hr) was 62.1 ± 6.9% and the viability at 1 µM (Hep 3B cells [2]; 72 h, read-out: Cell viability, DOX 1 μM, 72 hr) was 48.9 ± 8.4%. The viability at 2 µM (Hep 3B cells [2]; 72 h, read-out: Cell viability, DOX 2 μM, 72 hr) was 9.9 ± 2.7% and the IC50 (Hep 3B cells [2]; [8]) was 1 µM.
In the case of O=C(/C=C/c1ccc(O)c(O)c1)OCCc1ccccc1 [CAPE, caffeic acid phenethyl ester], the Cell viability (Hep 3B cells [3]; 5 μM) is reported as 88.8 ± 1.6^b % of control, the Cell viability (Hep 3B cells [3]; 10 μM) is reported as 77.4 ± 1.8^c % of control and the viability at 48 h, 5 μM (in vitro) is reported as 70.2 ± 1.7%. It also gave a viability at 48 h, 10 μM (in vitro) of 47.7 ± 5.6%, a viability at 48 hr, 5 μM (in vitro) of 71.1 ± 1.8% and a viability at 48 hr, 10 μM (in vitro) of 47.4 ± 3%. The viability at 48 hr, 25 μM (in vitro) was 42.6 ± 1.3%, the viability at 48 hr, 50 μM (in vitro) was 7.5 ± 0.6% and the viability at 72 h, 5 μM (in vitro) was 36.8 ± 6.7%. For the same molecule, the viability at 72 h, 10 μM (in vitro) was 20 ± 4%, the viability at 72 h, 25 μM (in vitro) was 13.2 ± 1.1% and the viability at 72 hr, 5 μM (in vitro) was 42.3 ± 2.5%. For the same molecule, the viability at 72 hr, 10 μM (in vitro) was 21.2 ± 5%, the viability at 72 hr, 25 μM (in vitro) was 12.5 ± 3% and the viability at 72 hr, 50 μM (in vitro) was 1.9 ± 1.8%. For the same molecule, the “cell cycle arrest stage” value (Hep 3B cells [4]) was “G1 arrest”, the IC50 (Hep G2 cells; [5]) was 9.5 µM and the IC50 (Hep G2 cells; [6]) was 4.5 µM. The “Ratio, inhibition … (%) Hep G2” value (Hep 3B cells [2]; CAPE 5 μM alone, 72 hr, Table 23) was 0.4**, the “Ratio, inhibition … (%) Hep G2” value (Hep 3B cells [2]; CAPE 5 μM, 48 hr) was 0.4*** and the “Ratio, inhibition … (%) Hep G2” value (Hep 3B cells [2]; CAPE 5 μM, 72 hr) was 0.5***. For the same molecule, the “Ratio, inhibition … (%) Hep G2” value (Hep 3B cells [2]; CAPE 10 μM alone, 72 hr, Table 23) was 0.6***, the “Ratio, inhibition … (%) Hep G2” value (Hep 3B cells [2]; CAPE 10 μM, 48 hr) was 0.5*** and the “Ratio, inhibition … (%) Hep G2” value (Hep 3B cells [2]; CAPE 10 μM, 72 hr) was 0.7**. The “Ratio, inhibition … (%) Hep G2” value (Hep 3B cells [2]; CAPE 25 μM alone, 72 hr, Table 23) was 0.9, the “Ratio, inhibition … (%) Hep G2” value (Hep 3B cells [2]; CAPE 25 μM, 48 hr) was 1.1 and the “Ratio, inhibition … (%) Hep G2” value (Hep 3B cells [2]; CAPE 25 μM, 72 hr) was 1.0. The “Ratio, inhibition … (%) Hep G2” value (Hep 3B cells [2]; CAPE 50 μM, 48 hr) was 0.9**, the “Ratio, inhibition … (%) Hep G2” value (Hep 3B cells [2]; CAPE 50 μM, 72 hr) was 1.0 and the viability at 5 µM (Hep 3B cells [2]; 48 h, read-out: Cell viability, CAPE 5 μM, 48 hr) was 87.1 ± 1.8%. For the same molecule, the viability at 10 µM (Hep 3B cells [2]; 48 h, read-out: Cell viability, CAPE 10 μM, 48 hr) was 73.2 ± 1.2%, the viability at 25 µM (Hep 3B cells [2]; 48 h, read-out: Cell viability, CAPE 25 μM, 48 hr) was 38.2 ± 4.7% and the viability at 50 µM (Hep 3B cells [2]; 48 h, read-out: Cell viability, CAPE 50 μM, 48 hr) was 20.5 ± 4.6%. It also gave an IC50 (Hep 3B cells [2]; [7]) of 19.9 µM, a viability at 5 µM (Hep 3B cells [2]; 72 h, read-out: Cell viability, CAPE 5 μM alone, 72 hr, Table 23) of 74.2 ± 6.8% and a viability at 5 µM (Hep 3B cells [2]; 72 h, read-out: Cell viability, CAPE 5 μM, 72 hr) of 70.8 ± 2.6%. For the same molecule, the viability at 10 µM (Hep 3B cells [2]; 72 h, read-out: Cell viability, CAPE 10 μM alone, 72 hr, Table 23) was 53.5 ± 5%, the viability at 10 µM (Hep 3B cells [2]; 72 h, read-out: Cell viability, CAPE 10 μM, 72 hr) was 47.6 ± 1.9% and the viability at 25 µM (Hep 3B cells [2]; 72 h, read-out: Cell viability, CAPE 25 μM alone, 72 hr, Table 23) was 22.3 ± 5.7%. The viability at 25 µM (Hep 3B cells [2]; 72 h, read-out: Cell viability, CAPE 25 μM, 72 hr) was 12.5 ± 4.8%, the viability at 50 µM (Hep 3B cells [2]; 72 h, read-out: Cell viability, CAPE 50 μM, 72 hr) was 0% and the IC50 (Hep 3B cells [2]; [8]) was 9.5 µM. The “Ratio, inhibition … (%) Hep G2” value (Hep 3B cells [2]; no lovastatin 48 hr, then CAPE 5 μM 48 hr) was 0.4*** and the “Ratio, inhibition … (%) Hep G2” value (Hep 3B cells [2]; no lovastatin 48 hr, then CAPE 10 μM 48 hr) was 0.4***.
